Laboratory results taken from ChEMBL document CHEMBL4808173, “Discovery of Novel Benzimidazole and Indazole Analogues as Tubulin Polymerization Inhibitors with Potent Anticancer Activities” (J Med Chem, 2021).

Columns and labels:
Format in all cases: functional, cell-based
B16-F10 = assay: Antiproliferative activity against mouse B16-F10 cells assessed as reduction in cell viability measured after 48 hrs by MTT assay; conditions: B16-F10, 48 h
A549 = assay: Antiproliferative activity against human A549 cells assessed as reduction in cell viability measured after 48 hrs by MTT assay; conditions: A549, 48 h
MCF7 = assay: Antiproliferative activity against human MCF7 cells assessed as reduction in cell viability measured after 48 hrs by MTT assay; conditions: MCF7, 48 h
HeLa = assay: Antiproliferative activity against human HeLa cells assessed as reduction in cell viability measured after 48 hrs by MTT assay
A2780/Taxol = assay: Antiproliferative activity against human A2780T cells assessed as reduction in cell viability measured after 48 hrs by MTT assay
A2780S = assay: Antiproliferative activity against human A2780S cells assessed as reduction in cell viability measured after 48 hrs by MTT assay

Row | SMILES | IC50 (B16-F10) | IC50 (A549) | IC50 (MCF7) | IC50 (HeLa) | IC50 (A2780/Taxol) | IC50 (A2780S)
1 | COc1cc(-c2cccc3[nH]c(-c4cn(C)c5ccccc45)nc23)cc(OC)c1OC | 631 nM | 1010 nM | 176 nM | 981 nM |  | 
2 | CCCCn1ccc2c(-c3nc4c(-c5cc(OC)c(OC)c(OC)c5)cccc4[nH]3)cccc21 | > 10000 nM | > 10000 nM | > 10000 nM | > 10000 nM |  | 
3 | COc1cc(-c2ccc3[nH]nc(-c4ccc5c(ccn5C)c4)c3c2)cc(OC)c1OC | 9260 nM | > 10000 nM | 9980 nM | 8030 nM |  | 
4 | COc1cc(-c2n[nH]c3ccc(-c4ccc5c(ccn5C)c4)cc23)cc(OC)c1OC | 64 nM | 93 nM | 26 nM | 141 nM |  | 
5 | COc1cc(-c2ccnc3cc(-c4cn(CO)c5ccccc45)nn23)cc([Se]C)c1OC | 856 nM | 224 nM | 313 nM | 856 nM |  | 
6 | COc1cc(-c2ccc3[nH]nc(-c4cccc(C#N)c4)c3c2)cc(OC)c1OC | > 10000 nM | > 10000 nM | > 10000 nM | > 10000 nM |  | 
7 | COc1cc(-c2ccc3[nH]nc(-c4ccc(C(=N)NO)cc4)c3c2)cc(OC)c1OC | > 10000 nM | > 10000 nM | > 10000 nM | > 10000 nM |  | 
8 | COc1cc(-c2n[nH]c3ccc(-c4ccc(C#N)cc4)cc23)cc(OC)c1OC | 1410 nM | 1030 nM | 1050 nM | 2070 nM |  | 
9 | COc1cc(-c2n[nH]c3ccc(-c4ccc5c(cnn5C)c4)cc23)cc(OC)c1OC | 2620 nM | 6220 nM | 360 nM | 2020 nM |  | 
10 | COc1cc(-c2n[nH]c3ccc(-c4ccc(C(=N)NO)cc4)cc23)cc(OC)c1OC | 1600 nM | 2980 nM | 3160 nM | 3790 nM |  | 
11 | COc1cc(-c2ccc3[nH]nc(-c4ccc(F)cc4)c3c2)cc(OC)c1OC | > 10000 nM | > 10000 nM | > 10000 nM | > 10000 nM |  | 
12 | COc1cc(-c2ccc3[nH]nc(-c4cccc(C(=N)NO)c4)c3c2)cc(OC)c1OC | > 10000 nM | > 10000 nM | > 10000 nM | > 10000 nM |  | 
13 | COc1ccc(-c2n[nH]c3ccc(-c4cc(OC)c(OC)c(OC)c4)cc23)cc1 | > 10000 nM | > 10000 nM | > 10000 nM | > 10000 nM |  | 
14 | COc1cc(-c2n[nH]c3ccc(-c4ccccc4)cc23)cc(OC)c1OC | 394 nM | 445 nM | 245 nM | 547 nM |  | 
15 | COc1cc(-c2ccnc3cc(-c4ccc(S(C)(=O)=O)cc4)nn23)cc([Se]C)c1OC | 8520 nM | 6980 nM | 3160 nM | 8520 nM |  | 
16 | Cn1ccc2cc(-c3nccn4c(-c5ccc6c(ccn6C)c5)cnc34)ccc21 | > 10000 nM | > 10000 nM | > 10000 nM | > 10000 nM |  | 
17 | COc1cc(-c2nccn3c(-c4cc(OC)c(OC)c(OC)c4)cnc23)cc(OC)c1OC | > 10000 nM | > 10000 nM | > 10000 nM | > 10000 nM |  | 
18 | COc1cc(-c2ccc3[nH]nc(-c4ccc(C#N)cc4)c3c2)cc(OC)c1OC | > 10000 nM | > 10000 nM | > 10000 nM | > 10000 nM |  | 
19 | COc1cc(-c2cccc3[nH]c(-c4ccc5c(ccn5C)c4)nc23)cc(OC)c1OC | 746 nM | 2600 nM | 700 nM | 1540 nM |  | 
20 | COc1cc(-c2n[nH]c3ccc(-c4ccc(C)cc4)cc23)cc(OC)c1OC | 54 nM | 531 nM | 43 nM | 265 nM |  | 
21 | COc1cc(-c2n[nH]c3ccc(-c4cccc(C(=N)NO)c4)cc23)cc(OC)c1OC | 8030 nM | 6250 nM | > 10000 nM | 4680 nM |  | 
22 | COc1cc(-c2ccnc3cc(-c4c[nH]c5ccccc45)nn23)cc([Se]C)c1OC | 662 nM | 360 nM | 349 nM | 662 nM |  | 
23 | COc1cc(-c2cccc3[nH]c(-c4cccc(C(=N)NO)c4)nc23)cc(OC)c1OC | > 10000 nM | > 10000 nM | > 10000 nM | > 10000 nM |  | 
24 | COc1cc2c(c(OC)c1OC)-c1ccc(OC)c(=O)cc1[C@@H](NC(C)=O)CC2 [COLCHICINE] | 83 nM |  | 21 nM | 83 nM | 784 nM | 16.7 nM
25 | COc1cc(-c2n[nH]c3ccc(-c4ccc(F)cc4)cc23)cc(OC)c1OC | 635 nM | 759 nM | 606 nM | 926 nM |  | 
26 | COc1cc(-c2ccc3[nH]nc(-c4ccccc4)c3c2)cc(OC)c1OC | > 10000 nM | > 10000 nM | > 10000 nM | > 10000 nM |  | 
27 | COc1cc(-c2ccnc3cc(-c4ccc5c(ccn5C)c4)nn23)cc([Se]C)c1OC | 126 nM | 372 nM | 123 nM | 126 nM |  | 

The next lines start with results.

Row | IC50 (B16-F10) | IC50 (A549) | IC50 (MCF7) | IC50 (HeLa) | SMILES | IC50 (A2780/Taxol) | IC50 (A2780S)
28 | 7120 nM | > 10000 nM | 3160 nM | 7120 nM | COc1cc(-c2ccnc3cc(-c4ccccc4)nn23)cc([Se]C)c1OC |  | 
29 | > 10000 nM | > 10000 nM | > 10000 nM | > 10000 nM | COc1cc(-c2nccn3c(-c4ccc5c(ccn5C)c4)cnc23)cc(OC)c1OC |  | 
30 | > 10000 nM | > 10000 nM | > 10000 nM | > 10000 nM | COc1cc(-c2ccc3[nH]nc(-c4ccc(C)cc4)c3c2)cc(OC)c1OC |  | 
31 | 1710 nM | 1040 nM | 2380 nM | 2040 nM | COc1cc(-c2n[nH]c3ccc(-c4cccc(C#N)c4)cc23)cc(OC)c1OC |  | 
32 | > 10000 nM | > 10000 nM | > 10000 nM | > 10000 nM | COc1cc(-c2cccc3[nH]c(-c4ccc(C#N)cc4)nc23)cc(OC)c1OC |  | 
33 | > 10000 nM | > 10000 nM | > 10000 nM | > 10000 nM | COc1cc(-c2cccc3[nH]c(-c4ccc(C(=N)NO)cc4)nc23)cc(OC)c1OC |  | 
34 | > 10000 nM | > 10000 nM | > 10000 nM | > 10000 nM | COc1cc(-c2cnc3c(-c4ccc5c(ccn5C)c4)nccn23)cc(OC)c1OC |  | 
35 | 443 nM | 231 nM | 168 nM | 443 nM | COc1cc(-c2ccnc3cc(-c4ccc(C)cc4)nn23)cc([Se]C)c1OC |  | 
36 | 7950 nM | > 10000 nM | 6190 nM | 7950 nM | COc1ccc(-c2cc3nccc(-c4cc(OC)c(OC)c([Se]C)c4)n3n2)cc1[N+](=O)[O-] |  | 
37 | 161 nM | 191 nM | 37 nM | 132 nM | COc1ccc(-c2ccc3[nH]nc(-c4cc(OC)c(OC)c(OC)c4)c3c2)cc1 |  | 
38 | 3700 nM | 1250 nM | 1180 nM | 3700 nM | COc1cc(-c2ccnc3cc(-c4ccc5cnn(C)c5c4)nn23)cc([Se]C)c1OC |  | 
39 | 7260 nM | 7900 nM | > 10000 nM | 8620 nM | COc1cc(-c2ccc3[nH]nc(-c4cc(OC)c(OC)c(OC)c4)c3c2)cc(OC)c1OC |  | 
40 | 6190 nM | > 10000 nM | > 10000 nM | 6190 nM | COc1cc(-c2cccc3[nH]c(-c4cccc(C#N)c4)nc23)cc(OC)c1OC |  | 
